# Measured values reported in patent publication US20220008359A1, “COMBINATION ANTI-CANCER PRODUCTS AND METHODS” (priority 2020, published 2022).
# Marks after values point to notes of the source that are not given here.
# What was measured:
# Assay type in all cases: cell-based, human
# [1] = tested on: osimertinib-resistant (OR) H1975 cells; experiment: In-cell immunostaining of protein expression and phosphorylation, osimertinib-resistant H1975 cells; set-up: HDAC 1 expression / HDAC 2 expression / HDAC 3 expression / HDAC 4 expression / HDAC 5 expression / HDAC 6 expression / HDAC 7 expression / HDAC 8 expression / HDAC 9 expression / HDAC 10 expression / HDAC 11 expression: scale not given here; details: 6 h
# Method: Generation of erlotinib, afatinib and osimertinib-resistant cells. Cells were incubated in vitro with increasing concentrations of vehicle control or erlotinib or osimertinib until after ˜6 weeks the HCC827 and H1975 and H1650 cells grew with similar kinetics to sensitive cells in either erlotinib ([…]) or osimertinib ([…]), respectively. Afatinib-resistant cells were created in vivo by repeated high dosing until tumors disappeared and then regrew, as previously described.
# (§1) Assessments of protein expression and protein phosphorylation. Multi-channel fluorescence HCS microscopes perform true in-cell western blotting. Three independent cultures derived from three thawed vials of cells of a tumor were sub-cultured into individual 96-well plates. Twenty-four hours after plating, the cells are transfected with a control plasmid or a control siRNA, or with an empty vector plasmid or with plasmids to express various proteins. After another 24 hours, the cells are ready for drug exposure(s). At various time-points after the initiation of drug exposure, cells are fixed in place using paraformaldehyde and using Triton X100 for permeabilization. Standard immunofluorescent blocking procedures are employed, followed by incubation of different wells with a variety of validated primary antibodies and subsequently validated fluorescent-tagged secondary antibodies are added to each well. The microscope determines the background fluorescence in the well and in parallel randomly determines the mean fluorescent intensity of 100 cells per well.
# [2] = tested on: H1975 cells (wild type sensitive); experiment: In-cell immunostaining of protein expression and phosphorylation, H1975 wild type cells; set-up: HDAC 1 expression / HDAC 2 expression / HDAC 3 expression / HDAC 4 expression / HDAC 5 expression / HDAC 6 expression / HDAC 7 expression / HDAC 8 expression / HDAC 9 expression / HDAC 10 expression / HDAC 11 expression: scale not given here; details: 6 h
# Method: […] Cells were fixed in place 6 hours after treatment and immunostaining of single cells performed to determine the levels of each protein/phosphor-protein (n=3+/−SD). * p<0.05 less than vehicle control; # p<0.05 greater than vehicle control.
# as §1
# H1650 cells (wild type) = experiment: In-cell immunostaining of protein expression and phosphorylation, H1650 wild type cells; details: H1650 WT, 6 h; VEH = 100
# Method: as §1
# [3] = 1975 OR, GZ17-6.02 2 mM final curcumin, pemetrexed 500 nM
# [4] = 1975 OR, GZ17-6.02 2 mM final curcumin, pemetrexed 500 nM, vehicle 100%
# [5] = 1975 OR, GZ17-6.02, pemetrexed 500 nM, vehicle 100%
# [6] = 1975 WT, GZ17-6.02 2 mM final curcumin, pemetrexed 500 nM
# [7] = 1975 WT, GZ17-6.02 2 mM final curcumin, pemetrexed 500 nM, vehicle 100%
structure (smiles),measurement,setting,value
"Nc1nc2[nH]cc(CCc3ccc(C(=O)N[C@@H](CCC(=O)O)C(=O)O)cc3)c2c(=O)[nH]1 [PEM, Pemetrexed]",ERK2 expression,[1]; [3],101
same,HDAC 1 expression,[1]; [3],97
same,HDAC 2 expression,[1]; [3],93
same,HDAC 3 expression,[1]; [3],98
same,HDAC 4 expression,[1]; [3],100
same,HDAC 5 expression,[1]; [3],95
same,HDAC 6 expression,[1]; [3],93
same,HDAC 7 expression,[1]; [3],98
same,HDAC 8 expression,[1]; [3],101
same,HDAC 9 expression,[1]; [3],97
same,HDAC 10 expression,[1]; [3],100
same,HDAC 11 expression,[1]; [3],101
same,ATG5,[1]; [4],110%
same,Beclin1,[1]; [4],111%
same,CD95,[1]; [4],100%
same,CHOP,[1]; [4],107%
same,ERBB1,[1]; [4],99%
same,ERBB2,[1]; [4],100%
same,ERBB3,[1]; [4],101%
same,ERBB4,[1]; [4],100%
same,ERK2,[1]; [4],100%
same,FAS-L,[1]; [4],110%
same,GRP78,[1]; [4],115# %
same,P-AMPKα T172,[1]; [4],112%
same,P-ATG13 S318,[1]; [4],106%
same,P-ATM S1980,[1]; [4],109%
same,P-B1,[1]; [4],88%
same,P-B2,[1]; [4],92%
same,P-B3,[1]; [4],93%
same,P-B4,[1]; [4],95%
same,P-ERK1/2,[1]; [4],96%
same,P-JAK2,[1]; [4],89%
same,P-NFκB S536,[1]; [4],92%
same,P-PDGFRβ,[1]; [4],98%
same,P-PERK T980,[1]; [4],101%
same,P-SRC Y416,[1]; [4],90%
same,P-SRC Y527,[1]; [4],112%
same,P-STAT3 Y705,[1]; [4],88%
same,P-STAT5 Y694,[1]; [4],87* %
same,P-ULK1 S317,[1]; [4],103%
same,P-ULK1 S757,[1]; [4],96%
same,P-c-MET,[1]; [4],88%
same,P-c-MT,[1]; [4],90%
same,P-eIF2α S51,[1]; [4],101%
same,P-mTOR S2448,[1]; [4],94%
same,P-mTOR S2481,[1]; [4],92%
same,PDGFRβ,[1]; [4],100%
same,PP1,[1]; [4],105%
same,c-KIT,[1]; [4],101%
same,c-MET,[1]; [4],100%
same,p70 S6K,[1]; [4],101%
same,p70 S6K T389,[1]; [4],98%
same,JAK2,[1]; [5],98%
same,P-AKT T308,[1]; [5],87* %
same,BCL-XL expression,"[1]; H1975 OR, VEH = 100",90
same,ERK2 expression,"[1]; H1975 OR, VEH = 100",101
same,FLIP-s expression,"[1]; H1975 OR, VEH = 100",98
same,MCL-1 expression,"[1]; H1975 OR, VEH = 100",84*
same,ERK2 expression,[2]; [6],100
same,HDAC 1 expression,[2]; [6],99
same,HDAC 2 expression,[2]; [6],93
same,HDAC 3 expression,[2]; [6],100
same,HDAC 4 expression,[2]; [6],100
same,HDAC 5 expression,[2]; [6],98
same,HDAC 6 expression,[2]; [6],88
same,HDAC 7 expression,[2]; [6],98
same,HDAC 8 expression,[2]; [6],101
same,HDAC 9 expression,[2]; [6],99
same,HDAC 10 expression,[2]; [6],102
same,HDAC 11 expression,[2]; [6],101
same,ATG5,[2]; [7],109%
same,Beclin1,[2]; [7],112%
same,CD95,[2]; [7],100%
same,CHOP,[2]; [7],107%
same,ERBB1,[2]; [7],101%
same,ERBB2,[2]; [7],101%
same,ERBB3,[2]; [7],99%
same,ERBB4,[2]; [7],100%
same,ERK2,[2]; [7],99%
same,FAS-L,[2]; [7],108%
same,GRP78,[2]; [7],112%
same,JAK2,[2]; [7],102%
same,P-AKT T308,[2]; [7],87* %
same,P-AMPKα T172,[2]; [7],105%
same,P-ATG13 S318,[2]; [7],104%
same,P-ATM S1980,[2]; [7],108%
same,P-B1,[2]; [7],88%
same,P-B2,[2]; [7],96%
same,P-B3,[2]; [7],95%
same,P-B4,[2]; [7],100%
same,P-ERK1/2,[2]; [7],95%
same,P-JAK2,[2]; [7],91%
same,P-NFκB S536,[2]; [7],85* %
same,P-PDGFRβ,[2]; [7],90%
same,P-PERK T980,[2]; [7],103%
same,P-SRC Y416,[2]; [7],94%
same,P-SRC Y527,[2]; [7],109%
same,P-STAT3 Y705,[2]; [7],88%
same,P-STAT5 Y694,[2]; [7],91%
same,P-ULK1 S317,[2]; [7],105%
same,P-ULK1 S757,[2]; [7],91%
same,P-c-MET,[2]; [7],94%
same,P-c-MT,[2]; [7],94%
same,P-eIF2α S51,[2]; [7],103%
same,P-mTOR S2448,[2]; [7],96%
same,P-mTOR S2481,[2]; [7],91%
same,PDGFRβ,[2]; [7],100%
same,PP1,[2]; [7],109%
same,c-KIT,[2]; [7],99%
same,c-MET,[2]; [7],100%
same,p70 S6K,[2]; [7],101%
same,p70 S6K T389,[2]; [7],99%
same,BCL-XL expression,"[2]; H1975 WT, VEH = 100",87*
same,ERK2 expression,"[2]; H1975 WT, VEH = 100",100
same,FLIP-s expression,"[2]; H1975 WT, VEH = 100",101
same,MCL-1 expression,"[2]; H1975 WT, VEH = 100",81*
same,BCL-XL expression,H1650 cells (wild type),84*
same,ERK2 expression,H1650 cells (wild type),100
same,FLIP-s expression,H1650 cells (wild type),92
same,MCL-1 expression,H1650 cells (wild type),83*
